Test results taken from patent US11786484B2, “Xanthohumol solubilizate” (Aquanova AG, priority 2018, dated 2023).

How the values were obtained:
[1] = tested on: total antioxidant capacity (TAC); assay: Adjuvant induced arthritis in rats: total antioxidant capacity (TAC) in serum; assay type: in vivo, Wistar rats; settings: serum of arthritic rats (n=8), once daily for 21 days, mean ± SEM
Description: (§1) Anti-inflammatory markers and antioxidant capacity were determined. Female Wistar rats with a body weight between 150 and 200 g were exposed to adjuvant induced arthritis according to Pearson et al. (1956). At day 0, the animals were administered 0.1 ml of Freund's Adjuvant (FCA) in the right hind paw, by subplantar injection. The animals were randomly divided into 12 groups of 8 animals each.
(§2) All extracts or solubilizates were administered orally once daily from day 0 through day 21 following the vaccination with the adjuvant. After day 21, the animals were killed and serum samples were prepared and stored at −80° C. Measurements were made of myeloperoxidase (MPO), C-reactive protein (CRP), total antioxidant capacity (TAC), and thiobarbituratic acid reactive substances (TBARS).
(§3) Oxidative stress is one of the major factors contributing to joint destruction in rheumatoid arthritis (RA). An increase in the production of reactive oxygen species (ROS) leads to a reduced supply of endogenous antioxidants and ultimately results in the destruction of cells. The neutrophil granulocytes released in the rheumatoid joint produce free oxygen radicals which cause increased formation of lipid peroxides manifesting in an increase in serum TBARS. […]

[2] = tested on: thiobarbituric acid reactive substances TBARS; assay: Adjuvant induced arthritis in rats: TBARS in serum; assay type: in vivo, Wistar rats; settings: serum of arthritic rats (n=8), once daily for 21 days, mean ± SEM
Description: as §1, §2, §3

WTD fed mice [3] = assay: Liver weight, hepatic triglyceride level and histology (steatosis) in WTD mice; assay type: in vivo, mice of the strain C57BL/6; settings: 2.5 mg/kg daily, 8 weeks
Description: (§4) The medical faculty of Friedrich-Alexander University Erlangen Nürnberg (FAU) conducted studies on the effects of xanthohumol on body weight. A dose of 2.5 mg/kg body weight of xanthohumol was administered daily. For this purpose, a solubilizate of the present Applicant was used. It was prepared from 100 g “Xantho-Flav Pure”, 150 g of 96% ethanol, and 750 g of polysorbate 80. For adjusting the concentration to 0.375 mg/ml, the solubilizate was diluted with double-distilled water (“ddH2O”). The corresponding data are marked by “s-XN” in the accompanying figures.
(§5) For comparison, similar experiments were conducted with the same dose of native xanthohumol. For dissolving the native xanthohumol, an aqueous solution of methylhydroxypropyl cellulose (MHPC, 0.2%, Methocel E4M Premium CR, Hypromellose 2910 USP, Fragron Inc., Minnesota, USA) was used. The corresponding data are marked by “n-XN”. […]
To quantify liver lipids, the latter were extracted and the amount of triglycerides (“hepatic triglyceride level”) was determined using a “GPO-triglyceride kit” (Sigma, Deisenhofen, Germany), as described in Wobser et al.: “Lipid accumulation in hepatocytes induces fibrogenic activation of hepatic stellate cells”, Cell Res 2009; 19:996-1005. […]

myeloperoxidase (MPO) = assay: Adjuvant induced arthritis in rats: serum MPO; assay type: in vivo, Wistar rats; settings: arthritic rats, 5 mg/kg orally once daily day 0 through day 21; diclofenac 3 mg/kg as reference
Description: as §1, §2

WTD fed mice [4] = assay: Intraperitoneal glucose tolerance test (ipGTT) in WTD mice; assay type: in vivo, mice of the strain C57BL/6; settings: 2.5 mg/kg daily, after seven weeks
Description: as §4, §5
After seven weeks of administration of the solubilizate or of native xanthohumol, an intraperitoneal glucose tolerance test (ipGTT) was carried out. […] The concentration of glucose in the blood was measured in samples that were taken from the tail vein prior to glucose administration (fasting glucose) as well as 30, 60, 80, and 120 minutes thereafter. […]

type 1 collagen (COL1A1) = assay: Hepatic expression of type 1 collagen in WTD mice; assay type: in vivo, mice of the strain C57BL/6; settings: 2.5 mg/kg daily, 8 weeks
Description: (§6) Male mice of the strain C57BL/6 at an age of 8 weeks either received usual diet or were fed according to the “Western type diet” consisting of 15% pork lard, 15% beef tallow, 4% palmitic acid, 4% stearic acid, 0.2% cholesterol, and 30% sucrose. The control group (CTRL), which received the usual diet, was given an aqueous solution of methylhydroxypropyl cellulose (MHPC, 0.2%, Methocel™ E4M prem) (“vehicle” VH) as a therapy, as was the case with the “Western type diet” group (“WTD”).
(§7) Other groups received the xanthohumol solubilizate (“s-XN”) of the present Applicant or native xanthohumol (“n-XN”) in addition to the WTD. The therapy was conducted over 8 weeks.
(§8) RNA isolation from liver tissue, reverse transcription and quantitative real-time polymerase chain reaction (PCR) analysis were carried out using the “LightCycler” technology (Roche) and specific tests for primers, as described in Hellebrand et al.: “Promoter hypermethylation is causing functional relevant downregulation of methylthioadenosine phosphorylase (MTAP) expression in hepatocellular carcinoma”, Carcinogenesis 2006; 27:64-72.
Type 1 collagen (COL1A1) is the most important extracellular matrix protein in liver fibrosis, both quantitatively and qualitatively.

C-reactive protein (CRP) = assay: Adjuvant induced arthritis in rats: serum CRP; assay type: in vivo, Wistar rats; settings: arthritic rats, 5 mg/kg orally once daily day 0 through day 21; diclofenac 3 mg/kg as reference
Description: as §1, §2

[5] = tested on: alpha-smooth muscle actin (α-SMA); assay: Hepatic expression of alpha-smooth muscle actin in WTD mice (qPCR, immunohistochemistry); assay type: in vivo, mice of the strain C57BL/6; settings: 2.5 mg/kg daily, 8 weeks
Description: as §6, §7, §8
The α-SMA protein is an established marker of activated hepatic stellate cells (HSC) which trigger liver cirrhosis. An immunohistochemical analysis of the α-SMA protein confirmed that WTD causes significant activation of HSC (FIG. 4B).

O=C(O)Cc1ccccc1Nc1c(Cl)cccc1Cl [Diclofenac, diclofenac]
TAC [1]: 82.08 ± 2.96 nmol/µL
TBARS [2]: 7.93 ± 0.84 nmol/L

COc1cc(O)c(CC=C(C)C)c(O)c1C(=O)/C=C/c1ccc(O)cc1 [native xanthohumol, xanthohumol]
TAC [1]: 63.71 ± 1.02 nmol/µL
steatosis (liver appearance, histological examinations) (WTD fed mice [3]): accumulation of fat in the liver (steatosis)
TBARS [2]: 11.42 ± 1.16 nmol/L
effect on the serum concentration of MPO, in words (myeloperoxidase (MPO)): only a slight effect
fasting glucose values (WTD fed mice [4]; 12 hours of fasting): did not bring about this effect
glucose tolerance (WTD fed mice [4]; ipGTT 3 mg glucose per gram body weight): did not bring about this effect
WTD-induced expression of type 1 collagen (type 1 collagen (COL1A1)): hardly any effects
effect on CRP serum level, in words (C-reactive protein (CRP)): effect comparable to that of diclofenac
WTD-induced expression of α-SMA [5]: hardly any effects
